Source: ChEMBL document CHEMBL5724914, “Linking interpersonal differences in gut microbiota composition and drug biotransformation activity” (2024)

conditions: human gut metagenome, 24 h, 2 µM
Also: call rule not given here.

| Bacterial Biotransformation | Compound |
| --- | --- |
| Compound NOT metabolized | CCOc1ccccc1OCCN[C@H](C)Cc1ccc(OC)c(S(N)(=O)=O)c1.Cl [TAMSULOSIN HYDROCHLORIDE] |
| Compound metabolized | COc1cc2nc(N3CCN(C(=O)C4CCCO4)CC3)nc(N)c2cc1OC (stereo not given) [TERAZOSIN] |

conditions: human gut metagenome, 24 h, 2 µM; remark: another data set of the same source

| Bacterial Biotransformation | Compound |
| --- | --- |
| Compound metabolized | CCOc1ccccc1OCCN[C@H](C)Cc1ccc(OC)c(S(N)(=O)=O)c1.Cl [TAMSULOSIN HYDROCHLORIDE] |
| Compound metabolized | COc1cc2nc(N3CCN(C(=O)C4CCCO4)CC3)nc(N)c2cc1OC (stereo not given) [TERAZOSIN] |

assay: (§1) The drug is tested on WLS-220 corresponding to human gut metagenome with ENA study accession number: PRJEB37062 and ENA sample accession number: ERS12561769 for biotransformation under anaerobic condition. The drug concentrations were measured over 9 timepoints collected between 0 and 24 hours of incubation by liquid-chromatography-coupled mass spectrometry (LC–MS); conditions: 2 µM

| Bacterial Biotransformation | Compound |
| --- | --- |
| Compound NOT metabolized | CCOc1ccccc1OCCN[C@H](C)Cc1ccc(OC)c(S(N)(=O)=O)c1.Cl [TAMSULOSIN HYDROCHLORIDE] |
| Compound metabolized | COc1cc2nc(N3CCN(C(=O)C4CCCO4)CC3)nc(N)c2cc1OC (stereo not given) [TERAZOSIN] |

assay: as §1, with “Z-003” for “WLS-220”, “pig” for “human”, “ERS12561803” for “ERS12561769”; conditions: 2 µM

| Bacterial Biotransformation | Compound |
| --- | --- |
| Compound metabolized | CCOc1ccccc1OCCN[C@H](C)Cc1ccc(OC)c(S(N)(=O)=O)c1.Cl [TAMSULOSIN HYDROCHLORIDE] |
| Compound NOT metabolized | COc1cc2nc(N3CCN(C(=O)C4CCCO4)CC3)nc(N)c2cc1OC (stereo not given) [TERAZOSIN] |

conditions: human gut metagenome, 24 h, 2 µM; remark: another data set of the same source

| Bacterial Biotransformation | Compound |
| --- | --- |
| Compound NOT metabolized | CCOc1ccccc1OCCN[C@H](C)Cc1ccc(OC)c(S(N)(=O)=O)c1.Cl [TAMSULOSIN HYDROCHLORIDE] |
| Compound NOT metabolized | COc1cc2nc(N3CCN(C(=O)C4CCCO4)CC3)nc(N)c2cc1OC (stereo not given) [TERAZOSIN] |

assay: as §1, with “Z-020” for “WLS-220”, “rabbit” for “human”, “ERS12561819” for “ERS12561769”; conditions: 2 µM

| Bacterial Biotransformation | Compound |
| --- | --- |
| Compound NOT metabolized | CCOc1ccccc1OCCN[C@H](C)Cc1ccc(OC)c(S(N)(=O)=O)c1.Cl [TAMSULOSIN HYDROCHLORIDE] |
| Compound NOT metabolized | COc1cc2nc(N3CCN(C(=O)C4CCCO4)CC3)nc(N)c2cc1OC (stereo not given) [TERAZOSIN] |

assay: as §1, with “WLS-077” for “WLS-220”, “ERS12561750” for “ERS12561769”; conditions: 2 µM

| Bacterial Biotransformation | Compound |
| --- | --- |
| Compound NOT metabolized | CCOc1ccccc1OCCN[C@H](C)Cc1ccc(OC)c(S(N)(=O)=O)c1.Cl [TAMSULOSIN HYDROCHLORIDE] |
| Compound NOT metabolized | COc1cc2nc(N3CCN(C(=O)C4CCCO4)CC3)nc(N)c2cc1OC (stereo not given) [TERAZOSIN] |

assay: as §1, with “Z-030” for “WLS-220”, “mouse” for “human”, “ERS12561829” for “ERS12561769”; conditions: 2 µM

| Bacterial Biotransformation | Compound |
| --- | --- |
| Compound NOT metabolized | CCOc1ccccc1OCCN[C@H](C)Cc1ccc(OC)c(S(N)(=O)=O)c1.Cl [TAMSULOSIN HYDROCHLORIDE] |
| Compound NOT metabolized | COc1cc2nc(N3CCN(C(=O)C4CCCO4)CC3)nc(N)c2cc1OC (stereo not given) [TERAZOSIN] |

conditions: human gut metagenome, 24 h, 2 µM; remark: another data set of the same source

| Bacterial Biotransformation | Compound |
| --- | --- |
| Compound metabolized | CCOc1ccccc1OCCN[C@H](C)Cc1ccc(OC)c(S(N)(=O)=O)c1.Cl [TAMSULOSIN HYDROCHLORIDE] |
| Compound metabolized | COc1cc2nc(N3CCN(C(=O)C4CCCO4)CC3)nc(N)c2cc1OC (stereo not given) [TERAZOSIN] |

assay: as §1, with “WLS-007” for “WLS-220”, “ERS12561742” for “ERS12561769”; conditions: 2 µM

| Bacterial Biotransformation | Compound |
| --- | --- |
| Compound NOT metabolized | CCOc1ccccc1OCCN[C@H](C)Cc1ccc(OC)c(S(N)(=O)=O)c1.Cl [TAMSULOSIN HYDROCHLORIDE] |
| Compound metabolized | COc1cc2nc(N3CCN(C(=O)C4CCCO4)CC3)nc(N)c2cc1OC (stereo not given) [TERAZOSIN] |

conditions: human gut metagenome, 24 h, 2 µM; remark: another data set of the same source

| Bacterial Biotransformation | Compound |
| --- | --- |
| Compound NOT metabolized | CCOc1ccccc1OCCN[C@H](C)Cc1ccc(OC)c(S(N)(=O)=O)c1.Cl [TAMSULOSIN HYDROCHLORIDE] |
| Compound metabolized | COc1cc2nc(N3CCN(C(=O)C4CCCO4)CC3)nc(N)c2cc1OC (stereo not given) [TERAZOSIN] |

conditions: human gut metagenome, 24 h, 2 µM; remark: another data set of the same source

| Bacterial Biotransformation | Compound |
| --- | --- |
| Compound NOT metabolized | CCOc1ccccc1OCCN[C@H](C)Cc1ccc(OC)c(S(N)(=O)=O)c1.Cl [TAMSULOSIN HYDROCHLORIDE] |
| Compound NOT metabolized | COc1cc2nc(N3CCN(C(=O)C4CCCO4)CC3)nc(N)c2cc1OC (stereo not given) [TERAZOSIN] |

conditions: human gut metagenome, 24 h, 2 µM; remark: another data set of the same source

| Bacterial Biotransformation | Compound |
| --- | --- |
| Compound metabolized | CCOc1ccccc1OCCN[C@H](C)Cc1ccc(OC)c(S(N)(=O)=O)c1.Cl [TAMSULOSIN HYDROCHLORIDE] |
| Compound metabolized | COc1cc2nc(N3CCN(C(=O)C4CCCO4)CC3)nc(N)c2cc1OC (stereo not given) [TERAZOSIN] |

assay: as §1, with “WLS-310” for “WLS-220”, “ERS12561785” for “ERS12561769”; conditions: 2 µM

| Bacterial Biotransformation | Compound |
| --- | --- |
| Compound NOT metabolized | CCOc1ccccc1OCCN[C@H](C)Cc1ccc(OC)c(S(N)(=O)=O)c1.Cl [TAMSULOSIN HYDROCHLORIDE] |
| Compound metabolized | COc1cc2nc(N3CCN(C(=O)C4CCCO4)CC3)nc(N)c2cc1OC (stereo not given) [TERAZOSIN] |

assay: as §1, with “Z-026” for “WLS-220”, “to” for “to human gut”, “ERS12561825” for “ERS12561769”; conditions: 2 µM

| Bacterial Biotransformation | Compound |
| --- | --- |
| Compound NOT metabolized | CCOc1ccccc1OCCN[C@H](C)Cc1ccc(OC)c(S(N)(=O)=O)c1.Cl [TAMSULOSIN HYDROCHLORIDE] |
| Compound NOT metabolized | COc1cc2nc(N3CCN(C(=O)C4CCCO4)CC3)nc(N)c2cc1OC (stereo not given) [TERAZOSIN] |

conditions: human gut metagenome, 24 h, 2 µM; remark: another data set of the same source

| Bacterial Biotransformation | Compound |
| --- | --- |
| Compound NOT metabolized | CCOc1ccccc1OCCN[C@H](C)Cc1ccc(OC)c(S(N)(=O)=O)c1.Cl [TAMSULOSIN HYDROCHLORIDE] |
| Compound metabolized | COc1cc2nc(N3CCN(C(=O)C4CCCO4)CC3)nc(N)c2cc1OC (stereo not given) [TERAZOSIN] |

conditions: human gut metagenome, 24 h, 2 µM; remark: another data set of the same source

| Bacterial Biotransformation | Compound |
| --- | --- |
| Compound metabolized | CCOc1ccccc1OCCN[C@H](C)Cc1ccc(OC)c(S(N)(=O)=O)c1.Cl [TAMSULOSIN HYDROCHLORIDE] |
| Compound metabolized | COc1cc2nc(N3CCN(C(=O)C4CCCO4)CC3)nc(N)c2cc1OC (stereo not given) [TERAZOSIN] |

conditions: human gut metagenome, 24 h, 2 µM; remark: another data set of the same source

| Bacterial Biotransformation | Compound |
| --- | --- |
| Compound NOT metabolized | CCOc1ccccc1OCCN[C@H](C)Cc1ccc(OC)c(S(N)(=O)=O)c1.Cl [TAMSULOSIN HYDROCHLORIDE] |
| Compound metabolized | COc1cc2nc(N3CCN(C(=O)C4CCCO4)CC3)nc(N)c2cc1OC (stereo not given) [TERAZOSIN] |

conditions: human gut metagenome, 24 h, 2 µM; remark: another data set of the same source

| Bacterial Biotransformation | Compound |
| --- | --- |
| Compound NOT metabolized | CCOc1ccccc1OCCN[C@H](C)Cc1ccc(OC)c(S(N)(=O)=O)c1.Cl [TAMSULOSIN HYDROCHLORIDE] |
| Compound NOT metabolized | COc1cc2nc(N3CCN(C(=O)C4CCCO4)CC3)nc(N)c2cc1OC (stereo not given) [TERAZOSIN] |

assay: as §1, with “Z-008” for “WLS-220”, “to” for “to human gut”, “ERS12561808” for “ERS12561769”; conditions: 2 µM

| Bacterial Biotransformation | Compound |
| --- | --- |
| Compound NOT metabolized | CCOc1ccccc1OCCN[C@H](C)Cc1ccc(OC)c(S(N)(=O)=O)c1.Cl [TAMSULOSIN HYDROCHLORIDE] |
| Compound NOT metabolized | COc1cc2nc(N3CCN(C(=O)C4CCCO4)CC3)nc(N)c2cc1OC (stereo not given) [TERAZOSIN] |
